In patent US11564913B2, “Compositions and methods for treating cancer” (Children's Hospital Medical Center, priority 2019, dated 2023):

Target: T1, LARG (DH/PH) (Homo sapiens, UniProt Q9NZN5)
T1 construct: the catalytic domain (DH/PH) of the RhoGEF LARG served as negative control; MBP; made in house
Experiment: Microscale thermophoresis (MST) binding
Conditions: no saturation at highest concentration tested, read-out: Kd, best estimate
Method: FIG. 14: IODVA1 targets Vav3 in vitro and in vivo. (A) Ba/F3 cells expressing empty vector Mieg3 or p190-BCR-ABL1 were treated with vehicle control or IODVA1 (IO1, 3 μM) for 30 min and incubated with GST-Rac and glutathione beads. Beads were washed and the protein complexes were separated on SDS-PAGE and immunoblotted for pVav3. Input Vav3 was used as control. (B) Binding affinity (Kd) between IODVA1 and Vav3 (green), LARG (brown), and RacGDP (blue). […] Error bars=SD; N=3. (C) Quantification of the average number of colonies made by bone marrow wild-type (black) and Vav3^−/− (lilac) p190-BCR-ABL1 leukemic cells treated with vehicle control or IODVA1 (IO1, 1 and 3 μM) (* p≤0.05; ** p≤0.01; *** p≤0.001; ns, not significant). (D) Representative histogram data of the cell cycle analysis of wild-type (black and grey bars) and Vav3^−/− (dark and light lilac) bone marrow cells expressing p190-BCR-ABL and treated with vehicle control or IODVA1 (IO1, 3 μM) for 20 h. (E) Quantification by densitometry of the pVav3 band from FIG. 14A. […]
To test this hypothesis, we measured its binding affinity (Kd) to recombinant Vav3 and Rac1 using microscale thermophoresis (MST); the catalytic domain (DH/PH) of the RhoGEF LARG served as negative control. […] Second, like Vav3, LARG contains a DH/PH domain responsible for the exchange activity such that any non-specific binding to this domain should be detected. […]

T1 sequence (Q9NZN5 765-1138 limits assumed): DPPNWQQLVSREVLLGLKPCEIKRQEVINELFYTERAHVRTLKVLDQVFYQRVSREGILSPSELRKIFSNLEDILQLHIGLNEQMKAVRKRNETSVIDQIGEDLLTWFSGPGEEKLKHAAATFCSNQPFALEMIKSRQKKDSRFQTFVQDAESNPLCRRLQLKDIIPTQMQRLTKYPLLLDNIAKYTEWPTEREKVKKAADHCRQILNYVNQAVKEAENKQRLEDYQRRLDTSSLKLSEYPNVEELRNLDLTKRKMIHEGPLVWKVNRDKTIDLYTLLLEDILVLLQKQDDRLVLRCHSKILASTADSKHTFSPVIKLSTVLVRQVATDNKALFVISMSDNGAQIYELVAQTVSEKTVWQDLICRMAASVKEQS

Question: How did the Kd turn out when OC1(c2ccccn2)N=C(Nc2nc3ccccc3[nH]2)N=C1c1ccccn1 (stereo not shown) [IODVA1, (Z)-2-((1H-benzo[d]imidazol-2-yl)imino)-4,5-di(pyridin-2-yl)-2,5-dihydro-1H-imidazol-5-ol] was run?
Answer: Its Kd is about 7.7 µM.
